In patent US20250090658A1, “POLYMER ADJUVANT” (Oxford University Innovation Limited, priority 2014, published 2025):
“Also recorded” adds a separate entry of the source.

How the values were obtained:
[1] = Body weight change after subcutaneous adjuvant administration; assay type: in vivo, C57/BL6 mice
Protocol: FIG. 10: Persistent local innate immune by particulate Poly-7/8a (PP-7/8a) activation is necessary and sufficient for inducing protective CD8 T cell responses. (a-c) CpG (20 μg), R848 (62.5 nmol) or PP-7/8a^Hi (62.5 nmol) were delivered subcutaneously into both hind footpads of C57/BL6 mice. (a) Supernatant of ex vivo cultured lymph node cell suspensions (n=4) were evaluated for IL-12p40 by ELISA at serial timepoints. (b) Serum (n=3-5) was assessed for IL-12p40 by ELISA at serial timepoints. (c) Percent body weight change (n=3) following subcutaneous administration of different vaccine adjuvants. (d) A model for understanding the relationship between biodistribution and local and systemic innate immune activation. (e, f) C57/BL6 mice (n=6) received a single subcutaneous footpad injection of 50 μg of OVA formulated with adjuvant at days 0 and 14. (e) At day 25, tetramer^+ CD8 T cell responses from whole blood were evaluated by flow cytometry. (f) Mice (n=6) were challenged intravenously at day 28 with LM-OVA and bacterial burden in the spleens was evaluated on day 31. (g, h) Immunogenicity experiments were repeated using SIV Gag p41 in place of OVA.

serum IL-12p40 and IP-10 = experiment: Serum (systemic) cytokines after subcutaneous administration (ELISA); assay type: in vivo, C57/BL6 mice
Text: FIG. 9: Morphology of the carrier and TLR-7/8a agonist density, dose and potency independently influence the magnitude and spatiotemporal characteristics of innate immune activation. (a-g) To facilitate in vivo tracking, dye-labeled Poly-7/8a (PP-7/8a^Hi, PP-7/8a^Lo, PC-7/8a^Lo) (Note PP-7/8a^Hi=10 mol % and PP-7/8a^Lo=3 mol %) and small molecule TLR-7/8a normalized for TLR-7/8a dose (12.5 nmol), and controls, were delivered subcutaneously to the left footpad of mice. […] (c-e) Draining lymph nodes (n=3) were harvested at serial timepoints and evaluated by flow cytometry. […] Total CD11c^+ DC were evaluated for (d) adjuvant uptake (% Ax488^+), (e,f) relative adjuvant uptake per cell (Ax488 MFI; note that PP-7/8a^Lo and PC-7/8a^Lo are matched for TLR-7/8a density and dose), (g) magnitude and (h) activation (CD80 co-stimulatory molecule expression). (i) IL-12p40 was measured from the supernatant of ex vivo lymph node cultures. […] At day 28, tetramer+CD8 T cell responses were evaluated from whole blood. […] (n) Total IgG antibody titers and the ratio of IgG1/IgG2c antibody endpoint titers were evaluated from sera on day 28.
FIG. 10: Persistent local innate immune by particulate Poly-7/8a (PP-7/8a) activation is necessary and sufficient for inducing protective CD8 T cell responses. […] (b) Serum (n=3-5) was assessed for IL-12p40 by ELISA at serial timepoints. […]

[2] = Biodistribution and kinetics of dye-labeled materials after subcutaneous administration (X-ray and epifluorescence imaging); assay type: in vivo, mice
Text: (§1) FIG. 9: Morphology of the carrier and TLR-7/8a agonist density, dose and potency independently influence the magnitude and spatiotemporal characteristics of innate immune activation. (a-g) To facilitate in vivo tracking, dye-labeled Poly-7/8a (PP-7/8a^Hi, PP-7/8a^Lo, PC-7/8a^Lo) (Note PP-7/8a^Hi=10 mol % and PP-7/8a^Lo=3 mol %) and small molecule TLR-7/8a normalized for TLR-7/8a dose (12.5 nmol), and controls, were delivered subcutaneously to the left footpad of mice. (a, b) mice (n=3) that received IR-dye labeled materials were imaged by dual modality X-ray and epifluorescence spectroscopy; (a) Representative images illustrating biodistribution over the first 2 days; (b) Kinetics of the different constructs in the popliteal lymph node. (c-e) Draining lymph nodes (n=3) were harvested at serial timepoints and evaluated by flow cytometry. […] Total CD11c^+ DC were evaluated for (d) adjuvant uptake (% Ax488^+), (e,f) relative adjuvant uptake per cell (Ax488 MFI; note that PP-7/8a^Lo and PC-7/8a^Lo are matched for TLR-7/8a density and dose), (g) magnitude and (h) activation (CD80 co-stimulatory molecule expression). (i) IL-12p40 was measured from the supernatant of ex vivo lymph node cultures. […] At day 28, tetramer+CD8 T cell responses were evaluated from whole blood. […] (n) Total IgG antibody titers and the ratio of IgG1/IgG2c antibody endpoint titers were evaluated from sera on day 28.

CD11c+ DC = experiment: DC recruitment and activation (CD80) in draining lymph nodes; assay type: in vivo, mice; details: TLR-7/8a dose 12.5 nmol, subcutaneous
Text: as §1

Th1 CD4 T cells = experiment: MML immunization, antigen-specific Th1 cytokine producing CD4 T cells in splenocytes; assay type: in vivo, C57/BL6 mice; details: 20 μg MML, days 0, 21 and 42
Protocol: FIG. 11: Particulate Poly-7/8a induce Th1 CD4 T cells that mediate protection against Leishmania major. C57/BL6 mice received subcutaneous immunizations of 20 μg of MML protein either alone, or formulated with an adjuvant, on days 0, 21 and 42. (a) Splenocytes were isolated on day 70 and stimulated in vitro with MML peptide pool. Antigen-specific cytokine producing CD4 T cells in the mixed splenocyte cultures were quantified by flow cytometry (n=5) for their capacity to produce Th1 characteristic cytokines (IFNγ, IL-2 and TNFα). (b) Mice (n=6) were challenged intradermally in both ears with L major at day 70. Ear lesion diameters were measured for 12 weeks.

hTLR7 = biological target: T1, hTLR7 (Homo sapiens, UniProt Q9NYK1); experiment: HEK293 hTLR7 reporter cell assay (absorbance at 405 nm); assay type: cell-based; details: HEK293 hTLR7 reporter cells
T1 construct: expressed in transfected cells; host or cells: HEK293
T1 sequence (Q9NYK1 27-1049): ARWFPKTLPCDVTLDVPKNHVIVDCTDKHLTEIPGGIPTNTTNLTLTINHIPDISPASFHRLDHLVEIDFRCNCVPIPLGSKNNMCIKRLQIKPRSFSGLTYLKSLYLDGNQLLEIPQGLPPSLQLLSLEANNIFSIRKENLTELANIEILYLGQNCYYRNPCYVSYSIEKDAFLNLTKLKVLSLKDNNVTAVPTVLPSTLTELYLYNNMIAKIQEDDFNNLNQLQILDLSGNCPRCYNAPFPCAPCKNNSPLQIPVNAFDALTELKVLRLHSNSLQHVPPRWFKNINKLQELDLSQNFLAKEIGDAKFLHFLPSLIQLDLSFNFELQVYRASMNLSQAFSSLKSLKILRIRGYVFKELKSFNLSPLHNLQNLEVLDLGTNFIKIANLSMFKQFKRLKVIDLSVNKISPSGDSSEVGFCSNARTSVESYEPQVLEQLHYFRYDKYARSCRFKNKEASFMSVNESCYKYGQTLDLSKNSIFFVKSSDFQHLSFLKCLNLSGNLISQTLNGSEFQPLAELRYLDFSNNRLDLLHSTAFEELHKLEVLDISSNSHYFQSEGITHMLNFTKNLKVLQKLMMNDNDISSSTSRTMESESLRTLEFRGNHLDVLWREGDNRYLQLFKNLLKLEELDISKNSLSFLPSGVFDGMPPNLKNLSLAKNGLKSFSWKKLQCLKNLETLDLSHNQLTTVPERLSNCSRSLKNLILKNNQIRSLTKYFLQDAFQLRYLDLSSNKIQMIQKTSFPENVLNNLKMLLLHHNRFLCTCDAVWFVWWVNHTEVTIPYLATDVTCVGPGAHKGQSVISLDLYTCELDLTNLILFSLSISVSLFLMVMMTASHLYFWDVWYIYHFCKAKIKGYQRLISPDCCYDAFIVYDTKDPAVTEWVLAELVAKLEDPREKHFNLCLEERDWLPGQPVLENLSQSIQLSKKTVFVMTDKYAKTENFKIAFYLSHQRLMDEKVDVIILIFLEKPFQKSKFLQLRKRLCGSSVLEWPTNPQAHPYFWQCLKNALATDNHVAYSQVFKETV
Protocol: FIG. 6: Combinatorial synthesis was used to generate diverse arrays of Poly-7/8a. […] The potency of these two TLR-7/8a was evaluated in vitro using HEK293 hTLR7 reporter cells; absorbance at 405 nm is proportional to TLR7 binding. (b) A combinatorial library of Poly-7/8a was generated by attaching 2 unique TLR-7/8a (SM 7/8a or SM 20×7/8a) to reactive HPMA-based copolymers at different densities (˜2,4, 8 mol %) using either a short, alkane or PEG linker. By reacting 2 unique TLR-7/8a, at 3 different densities, using 3 different linkers, there are 18 unique products that can be generated, as illustrated (c). Note that this cartoon representation is for illustrative purposes; not all Poly-7/8a represented in this schematic were evaluated in this study, nor does this schematic represent all the materials described herein.

[3] = Particle formation and size in aqueous solution by (dynamic) light scattering; assay type: physicochemical; details: 0.1 mg/mL PBS
Text: FIG. 7: In vivo screening of a combinatorial library of Poly-7/8a yields structure-activity insights. (a) Lymph node (n=4) IL-12p40 induced by a combinatorial library of Poly-7/8a. (b) Influence of TLR-7/8a density on lymph node (n=6) IL-12p40 and IP-10 levels (left y-axis, line graphs) and particle size assessed by dynamic light scattering (right y-axis, bar graph). (c) Cryo-electron microscopy of selected samples is shown for illustrative purposes. […] SM=small molecule; PC=polymer coil; PP=polymer particle.
FIG. 8: Increasing density of agonists on polymers results in an increased tendency of Poly-7/8a to form particles in aqueous solutions and is associated with enhanced local innate immune activity. (b) Negative control polymers were generated using aminopyridine (AP) to account for the contribution of the aromatic amine present on the imidazoquinoline based TLR-7/8a used in this study. AP was attached to polymers either through a PEG or amphiphilic (AMPH) spacer. […] 24 h after administration, supernatant of overnight lymph node cell suspensions were assessed for IFNα (d) or IFNγ (e) by ELISA. (f-g) Lymph nodes were isolated from wild type (WT), TLR-7 knockout or Caspase 1/11 (inflammasome) knockout mice 24 h after subcutaneously administering Poly-7/8a^10%; culture supernatants were evaluated for IP-10 and IL-12 by ELISA.

CCOCc1nc2c(N)nc3ccccc3c2n1CC(C)(C)O [R848]
mouse body weight [1]: transient decreases in mouse body weight
systemic (sera) cytokines (serum IL-12p40 and IP-10; CpG 20 μg, R848 62.5 nmol, PP-7/8a^Hi 62.5 nmol, subcutaneous): only induced systemic (sera) cytokines; also recorded: high levels of transient systemic cytokine production

CCOCc1nc2c(N)nc3ccccc3c2n1CCCCN [SM 7/8a, 1-(4-aminobutyl)-2-(ethoxymethyl)-1H-imidazo[4,5-c]quinolin-4-amine]
serum cytokines (serum IL-12p40 and IP-10; TLR-7/8a dose 12.5 nmol, local (subcutaneous) administration): high levels of serum cytokines
time after which undetectable [2]: ≤ 1 days
biodistribution / retention ([2]; normalized for TLR-7/8a dose): distributed systemically
DC recruitment, activation and cytokine production in draining lymph nodes (CD11c+ DC): limited lymph node responses
Th1-type CD4 cell responses (Th1 CD4 T cells): equivalent to MML administered alone

CCCCc1nc2c(N)nc3ccccc3c2n1Cc1ccc(CN)cc1 [SM 20×7/8a, 1-(4-(aminomethyl)benzyl)-2-butyl-1H-imidazo[4,5-c]quinolin-4-amine]
potency relative to SM 7/8a (hTLR7): ~20 fold

p[(HPMA)-co-(Ma-β-Ala-PEG-Pam2Cys)] [Poly-PEG-Pam2Cys]
z-average diameter [3]: 2,744±384.8 nm
